Results on two molecules are retold here after patent publication US20110172217A1, “RING-FUSED MORPHOLINE DERIVATIVE HAVING PI3K-INHIBITING ACTIVITY” (Shionogi & Co., Ltd., priority 2008, published 2011).

The subject of data set [1] is Salmonella typhimurium TA98 line, TA100 line. Nature of the data set: Fat Test (mutagenicity in Salmonella typhimurium). More on the design: key: When the mutagenicity is negative, the compound is shown as (−); When positive, the compound is shown as (+). Type of data set: cell-based. The conditions noted are these: TA98 and TA100 lines, non-metabolism-activation and metabolism-activation conditions. As for the experimental part:
20 μL of Salmonella enterica subsp. typhimurium (Salmonella typhimurium TA98 line, TA100 line) cryopreserved was inoculated to 10 mL of liquid nutrient medium (2.5% Oxoid nutrient broth No. 2) and then precultured at 37° C. for 10 hours with shaking. Regarding TA98 line, after 9 mL of a bacterial suspension was centrifuged (2000×g, 10 minutes) to remove the culture solution, the bacteria was suspended in 9 mL of Micro F buffer solution (K2HPO4: 3.5 g/L, KH2PO4: 1 g/L, (NH4)2SO4: 1 g/L, tri-sodium citric acid dihydrate: 0.25 g/L, MgSO4.7H2O: 0.1 g/L), and then added to 110 mL of Exposure media (Micro F buffer solution containing biotin: 8 μg/mL, histidine: 0.2 μg/mL, glucose: 8 mg/mL). Regarding TA 100 line, 120 mL of Exposure media was added to 3.16 mL of the bacterial suspension to prepare a test bacterial suspension. 12 μL of a solution of a test substance in DMSO (diluted eight times in a common ratio of 2 from the maximum dose of 50 mg/mL); 12 μL of DMSO as a negative control; 50 μg/mL 4-nitroquinoline-1-oxide solution in DMSO for TA98 line or 0.25 μg/mL 2-(2-furyl)-3-(5-nitro-2-furyl)acrylamide solution in DMSO as a positive control for TA 100 line in the case of a non-metabolism-activation condition; 12 μL of 40 μg/mL 2-aminoanthracene solution in DMSO for TA98 line or 20 μg/mL of 2-aminoanthracene solution in DMSO for TA100 line in the case of a metabolism-activation condition; were each mixed with 588 μL of the test bacterial suspension (in the case of a metabolism activation condition, a mixed solution of 498 μL of the test bacterial suspension and 90 μL S9 mix) and then cultured at 37° C. at 90 minutes with shaking. 460 μL of the bacterial suspension to which a test substance was exposed was mixed with 2300 μL of Indicator media (a Micro F buffer solution containing 8 μg/mL biotin, 0.2 μg/mL histidine, 8 mg/mL glucose, and 37.5 μg/mL bromocresol purple). […] Thus, in 48 wells per dose, the number of the bacteria-proliferation wells in which the color changed to yellow was counted, compared with a group of negative controls, and then evaluated. […]

In a further data set the target is T1, CYP2C9 (Homo sapiens, UniProt P11712).
T1 construct: enzyme: pooled human liver microsome 0.2 mg protein/mL; from tissue; host or cells: pooled human liver microsomes
T1 sequence (P11712 whole entry): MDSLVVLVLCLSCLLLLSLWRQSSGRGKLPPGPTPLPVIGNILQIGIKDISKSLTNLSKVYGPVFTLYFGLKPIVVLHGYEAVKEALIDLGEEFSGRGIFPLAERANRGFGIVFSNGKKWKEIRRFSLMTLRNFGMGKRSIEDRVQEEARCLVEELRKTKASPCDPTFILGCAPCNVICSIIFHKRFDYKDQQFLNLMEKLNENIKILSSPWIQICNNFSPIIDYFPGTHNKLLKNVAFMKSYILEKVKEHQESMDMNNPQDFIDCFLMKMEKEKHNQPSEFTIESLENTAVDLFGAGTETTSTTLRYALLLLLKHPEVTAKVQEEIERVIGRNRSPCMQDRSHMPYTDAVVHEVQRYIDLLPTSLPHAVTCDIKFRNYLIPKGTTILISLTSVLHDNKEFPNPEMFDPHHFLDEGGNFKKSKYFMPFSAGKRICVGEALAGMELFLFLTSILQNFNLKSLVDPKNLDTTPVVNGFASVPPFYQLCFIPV
Nature of the data set: CYP inhibition test, methyl-hydroxylation of tolbutamide. Type of data set: in vitro ADME. The settings on record: pooled human liver microsome; one of 5 kinds. The source says:
(§1) O-de-ethylation of 7-ethoxyresorufin (CYP1A2), methyl-hydroxylation of tolbutamide (CYP2C9), 4′-hydroxylation of mephenyloin (CYP2C19), O-demethylation of dextromethorphan (CYP2D6), and hydroxylation of terfenadine (CYP3A4), which are typical substrate for metabolic reactions of human main CYP5 molecular species (CYP1A2, 2C9, 2C19, 2D6, and 3A4), were adopted as indexes.
(§2) The reaction conditions are as follows: substrate: 0.5 μmol/L of ethoxyresorufin (CYP1A2), 100 μmol/L of tolbutamide (CYP2C9), 50 μmol/L of S-mephenyloin (CYP2C19), […] of dextromethorphan (CYP2D6), and 1 μmol/L of terfenadine (CYP3A4); reaction time; 15 minutes; reaction temperature: 37° C.; enzyme: pooled human liver microsome 0.2 mg protein/mL; test drug concentration: 1, 5, 10, and 20 μmol/L (4 points).
(§3) In a 96-well plate, as a reaction solution, five kinds of substrates, a human liver microsome, and a test drug were added to 50 mmol/L Hepes buffer solution in the aforementioned ratio. A coenzyme NADPH was added to start a metabolic reaction, which is an index. After reacting at 37° C. for 15 minutes, a solution of methanol/acetonitrile (1/1 (v/v)) was added to quench the reaction. After centrifugation at 3000 rpm for 15 minutes, resorufin (CYP1A2 metabolite) in the supernatant was quantitated with a fluorescence multilabel counter, and hydroxylated tolbutamide (CYP2C9 metabolite), 4′-hydroxylated mephenyloin (CYP2C19 metabolite), […], terfenadine in alcohol form (CYP3A4 metabolite) were quantitated with LC/MS/MS.
(§4) The case wherein only DMSO (a solvent which dissolved a drug) was added to a reaction system was defined as a control (100%). When a test drug solution was added, the remaining activity (%) at each concentration was calculated, and then IC50 was calculated with a concentration and an inhibition ratio by an inverse estimation using a logistic model.

The target in a further data set is T2, CYP1A2 (Homo sapiens, UniProt P05177).
T2 construct: enzyme: pooled human liver microsome 0.2 mg protein/mL; from tissue; host or cells: pooled human liver microsomes
T2 sequence (P05177 1-516): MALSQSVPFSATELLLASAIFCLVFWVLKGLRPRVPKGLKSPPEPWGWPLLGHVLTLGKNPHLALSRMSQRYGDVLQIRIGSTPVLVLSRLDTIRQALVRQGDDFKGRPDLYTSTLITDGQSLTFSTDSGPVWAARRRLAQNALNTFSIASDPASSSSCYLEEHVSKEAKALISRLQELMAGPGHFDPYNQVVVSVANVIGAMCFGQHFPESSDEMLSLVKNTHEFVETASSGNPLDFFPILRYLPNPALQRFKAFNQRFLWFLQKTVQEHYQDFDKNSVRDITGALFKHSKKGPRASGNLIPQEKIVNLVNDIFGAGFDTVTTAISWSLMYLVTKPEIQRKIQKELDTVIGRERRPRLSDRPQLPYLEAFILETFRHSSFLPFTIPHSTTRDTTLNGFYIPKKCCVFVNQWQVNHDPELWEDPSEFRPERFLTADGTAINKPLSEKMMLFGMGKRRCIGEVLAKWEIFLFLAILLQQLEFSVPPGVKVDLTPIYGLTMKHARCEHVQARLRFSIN
Put plainly: CYP inhibition test, O-de-ethylation of 7-ethoxyresorufin. Type of data set: in vitro ADME. The conditions noted are these: pooled human liver microsome; one of 5 kinds.
Description: as §1, §2, §3, §4
For orientation: Liver microsomes are vesicles of endoplasmic reticulum, rich in cytochrome P450 enzymes.

`O=C(O)c1ccccc1Nc1ccc2c(n1)N(C(=O)Nc1ccccc1)CCO2` [Compound I-145]: the mutagenicity entry in data set [1] is “(−)”. With `O=C(O)COc1cccc(Nc2ccc3c(n2)N(C(=O)Nc2ccccc2)CCO3)c1` [Compound I-240], the half-maximal inhibitory concentration (IC50) against CYP2C9 and at CYP1A2 was more than 20 µM in each case.
